Assays:
[1] = system: souris mâle; experiment: Acute toxicity by the i.p. route (DL-0, DL-50); type: in vivo; details: voie i.p.
Procedure: (§1) On a résumé ci-après les résultats des essais qui ont été entrepris chez l'animal avec le CRL 40914, ce produit étant administré, sauf indications contraires, en solution dans l'eau (à pH 5) par voie intrapéritonéale sous un volume de 20 ml/kg chez la souris mâle et de 5 ml/kg chez le rat mâle.
Chez la souris mâle, la DL-0 (dose maximale non mortelle) par voie i.p. est supérieure à 128 mg/kg.
(§2) On a résumé ci-après les résultats des essais qui ont été entrepris chez l'animal avec le CRL 40915, les modalités opératoires étant celles données ci-dessus pour le CR L 40914.
Chez la souris mâle, la DL-0 (dose maximale non mortelle) par voie i.p. est supérieure à 256 mg/kg, et la DL-50 par voie i.p. est de l'ordre de 500 mg/kg environ.

[2] = system: souris; experiment: Global behaviour and reactivity, mouse; type: in vivo
Procedure: as §1
(§3) Des lots de 3 animaux sont observés avant, puis 15 min, 30 min, 1 h, 2 h, 3 h et 24 h après l'administration de CRL 40914. On observe ce qui suit:
as §2

[3] = system: rat; experiment: Global behaviour and reactivity, rat; type: in vivo
Procedure: as §1, §3, §2

[4] = system: rats; experiment: Search for stereotyped movements; type: in vivo; details: rat
Procedure: Des lots de 6 rats reçoivent une injection intrapéritonéale de CRL 40914 ou d'amphétamine puis sont immédiatement placés dans des boîtes de petites dimensions où leur comportement stéréotypé est coté de 0 à 3 toutes les 10 min jusqu'à extinction de l'effet.

[5] = system: souris; experiment: Interaction with apomorphine, mouse; type: in vivo; details: 16 mg/kg et 64 mg/kg i.p., une demi-heure avant apomorphine s.c. 1 ou 16 mg/kg
Procedure: Des lots de 6 souris reçoivent le CRL 40914 une demi-heure avant l'injection sous-cutanée d'apomorphine, à la dose de 1 mg/kg ou 16 mg/kg.
as §2

[6] = system: souris; experiment: Interaction with oxotremorine; type: in vivo; details: oxotrémorine 0,5 mg/kg i.p.
Procedure: Le CRL 40914 est administré à des lots de 6 souris une demi-heure avant l'injection intrapéritonéale de 0,5 mg/kg d'oxotrémorine.
as §2

[7] = system: souris; experiment: Four plates test, traction and electroshock; type: in vivo
From the text: Le test est pratiqué sur des lots de 10 souris, une demi-heure après l'administration de CRL 40914.
as §2

[8] = system: souris; experiment: Motility reduced by habituation to the enclosure; type: in vivo; details: 64 mg/kg i.p.
Procedure: Après 18 h de séjour dans les actimètres, les souris (6 par dose, 12 témoins) reçoivent le CRL 40914. Elles sont aussitôt replacées dans leurs enceintes respectives et, une demi-heure plus tard, on enregistre leur motilité pendant 30 min.
as §2

[9] = system: souris; experiment: Motility reduced by hypoxic aggression; type: in vivo; details: i.p., anoxie hypobare aiguë
Procedure: Une demi-heure après avoir reçu le CRL 40914, les souris (10 par dose, 20 témoins) sont soumises à une anoxie hypobare aiguë [dépression de 600 mm Hg (soit environ 8 x10^4 pascals) en 90 s puis détente de 45 s] puis elles sont placées en actimètre où leur motilité est enregistrée pendant 10min.
as §2

[10] = system: souris; experiment: Interaction with barbital; type: in vivo; details: barbital sodique 220 mg/kg i.p.
Procedure: Des lots de 10 souris reçoivent le CRL 40914 une demi-heure avant l'injection intrapéritonéale de 220 mg/kg de barbital sodique.

[11] = system: souris; experiment: Behavioural despair (immobility in water); type: in vivo; details: souris en immersion, dès 4 mg/kg i.p.; effet particulièrement net à 64 mg/kg
From the text: Une demi-heure après avoir reçu le CRL 40914 ou la désipramine, des lots de 10 souris sont plongés dans un bécher rempli d'eau sur une hauteur de 6 cm. On note la durée d'immobilité de la souris entre la 2ème et la 6ème min suivant son immersion.

[12] = system: souris; experiment: Interaction with yohimbine, temperature; type: in vivo; details: 1 mg/kg et 16 mg/kg de CRL 40914, yohimbine 0,5 mg/kg i.p. une demi-heure avant
Procedure: Des lots de 12 souris reçoivent une injection intrapéritonéale de 0,5 mg/kg de yohimbine, une demi-heure avant l'administration de CRL 40914.

[13] = system: souris; experiment: Interaction with yohimbine, spontaneous motility; type: in vivo; details: yohimbine 0,5 mg/kg i.p.
Procedure: Des lots de 12 souris reçoivent la yohimbine (0,5 mg/kg i.p.) et le CRL 40914 respectivement 60 et 30 min avant d'être placées en actimètre où leur motilité est enregistrée pendant une demi-heure.

[14] = system: rats génétiquement hypertendus; experiment: Action on the cardiovascular system; type: in vivo, rat; details: 20 mg/kg par voie buccale
Procedure: Six rats génétiquement hypertendus à cathéter artériel fémoral implanté reçoivent le CRL 40914 à la dose de 20 mg/kg par voie buccale.

[15] = system: homme; experiment: Clinical use by the oral route; type: in vivo; details: voie orale, 2 à 3 comprimés ou gélules (10 à 20 mg chacun) par jour

CCN1CCOC(c2ccccc2)C1 (stereo not drawn) [CRL 40914, Chlorhydratede 2-phényl-4-éthyl-morpholine]
DL-0 (dose maximale non mortelle) [1]: > 128 mg/kg | mydriase ([2]; 2 mg/kg i.p.): mydriase pendant 1 h | sédation ([2]; 2 mg/kg i.p.): sédation pendant 30 à 60 min | hypothermie ([2]; 2 mg/kg i.p., pendant 1 à 2 h): -3,6 °C | mydriase ([2]; 4 mg/kg i.p.): mydriase pendant 1 heure | sédation ([2]; 4 mg/kg i.p.): sédation pendant 30 à 60 min | hypothermie ([2]; 4 mg/kg i.p., pendant 1 h): -2,2 °C | excitation ([2]; 16 mg/kg i.p.): excitation pendant 30 min suivie d'une hyporéactivité au toucher | lacrymation ([2]; 16 mg/kg i.p.): lacrymation pendant 1 h | mydriase ([2]; 16 mg/kg i.p.): mydriase pendant 1 h | hypothermie ([2]; 16 mg/kg i.p., pendant 2 à 3 h): -2,8 °C | excitation ([2]; 64 mg/kg i.p.): excitation pendant 1 à 2 h avec manifestation de mouvements stéréotypés | mydriase ([2]; 64 mg/kg i.p.): mydriase pendant 1 h | piloérection, salivation et lacrymation ([2]; 64 mg/kg i.p.): piloérection, salivation et lacrymation pendant 1 h | polypnée ([2]; 64 mg/kg i.p.): polypnée pendant 2 h | mydriase ([3]; rat, 0,5 mg/kg i.p.): mydriase pendant 1 à 2 h | mydriase ([3]; rat, 2 mg/kg i.p.): mydriase pendant 1 à 2 h | sédation ([3]; rat, 2 mg/kg i.p.): sédation pendant 1 h | mydriase ([3]; rat, 8 mg/kg i.p.): mydriase pendant 2 h | piloérection ([3]; rat, 8 mg/kg i.p.): piloérection pendant 1 à 2 h | sédation ([3]; rat, 8 mg/kg i.p.): sédation pendant 2 h avec diminution de la réactivité au toucher mais augmentation de la réaction de peur | mydriase ([3]; rat, 32 mg/kg i.p.): mydriase pendant plus de 3 h | piloérection, salivation et lacrymation ([3]; rat, 32 mg/kg i.p.): piloérection (pendant 3 h), salivation (pendant 1 h) et lacrymation (pendant 1 h) | réaction de peur ([3]; rat, 32 mg/kg i.p.): augmentation de la réaction de peur pendant 3 h | sédation ([3]; rat, 32 mg/kg i.p.): sédation pendant 3 h avec diminution de la réactivité au toucher et du tonus musculaire | mouvements stéréotypés ([4]; 32 mg/kg i.p.): ne provoque pas de stéréotypies | mouvements stéréotypés ([4]; 64 mg/kg i.p.): mouvements stéréotypés d'intensité et de durée comparables à ceux observés après administration de 1 mg/kg d'amphétamine | mouvements stéréotypés ([4]; 128 mg/kg i.p.): cet effet est encore plus net | action hypothermisante de l'apomorphine [5]: s'oppose à l'action hypothermisante de l'apomorphine | indices de verticalisation et de stéréotypies (apomorphine) [5]: semble augmenter les indices de verticalisation et de stéréotypies | effet hypothermisant de l'oxotrémorine ([6]; 16 mg/kg et 64 mg/kg i.p.): combat l'effet hypothermisant | tremblements dus à l'oxotrémorine ([6]; 64 mg/kg i.p.): diminue l'intensité des tremblements | signes de stimulation cholinergique périphérique provoqués par l'oxotrémorine [6]: laisse inchangés les signes de stimulation cholinergique périphériques | effets létaux de l'électrochoc ([7]; 64 mg/kg i.p.): aggrave les effets létaux de l'électrochoc | déficit moteur (traction) ([7]; i.p.): ne provoque pas de déficit moteur majeur | nombre de passages punis (test des quatre plaques) ([7]; i.p., faible dose / forte dose): à faible dose une diminution, et à forte dose une augmentation du nombre de passages punis | activité motrice chez la souris habituée à son enceinte [8]: reprise très nette de l'activité motrice | activité motrice après agression hypoxique [9]: modifications de l'activité motrice qui reflètent son action sur la motilité spontanée | durée du sommeil induit par le barbital ([10]; 4 mg/kg et 16 mg/kg i.p.): semble prolonger modérément la durée du sommeil induit par le barbital | durée du sommeil induit par le barbital ([10]; 64 mg/kg i.p.): antagonisme net | durée d'immobilité [11]: diminue la durée d'immobilité | hypothermie induite par le CRL 40914 après yohimbine [12]: empêche l'apparition de l'hypothermie | hypomotilité produite par le CRL 40914 après yohimbine ([13]; CRL 40914 1 mg/kg): s'oppose à l'hypomotilité | hypomotilité produite par le CRL 40914 après yohimbine ([13]; CRL 40914 16 mg/kg): ne modifie pas celle provoquée par 16 mg/kg | effet sur la pression artérielle [14]: modérément hypotenseur | temps de l'effet maximal sur la pression artérielle [14]: 7 h | variation de la pression artérielle ([14]; 7 h après): -18% | pression artérielle (effet maximal) ([14]; 7 h après, valeur initiale 165): 135 mm Hg | pression artérielle et fréquence cardiaque après 24 h ([14]; 24 h): sont revenues à leur valeur témoin | fréquence cardiaque (minimum) ([14]; après 1,5 h, valeur initiale 350): 270 battements/minute | résultats cliniques (agent antidépresseur du SNC) [15]: d'excellents résultats

— EP0080940B1, “Derivatives of 2-phenyl-morpholine and medical compositions” (LABORATOIRE L. LAFON Société anonyme dite:, priority 1981, dated 1983)
